The test system of test [1] is HEK293 cells cotransfected with the FOP control vector. Put plainly: HEK293 FOP assay (control reporter with non-functional TCF elements). Type of test: cell-based. Particulars: Homo sapiens, 16 hours. How it is done:
In a parallel approach, HEK293 cells were cotransfected with the FOP control vector and pcDNA3. The FOP vector is identical to the TOP construct, but it contains instead of functional TCF elements a randomized, non-functional sequence. For this transfection a stable transfected cell line was generated as well, based on selection with Geneticin (1 mg/ml).
(§1) In preparation of the assay, the two cell lines were plated 24 h before beginning the test at 10000 cells per well in a 384 micro titre plate (MTP) in 30 μl growth medium. […] The recombinant human Wnt-3a was thereby applied between 2500 and 5 ng/ml in two-fold dilution steps.
(§2) Selective inhibitory activity for small molecules on the wildtype Wnt pathway was determined after parallel incubation of both (TOP and FOP) HEK293 reporter cell lines with a compound dilution series from 50 μM to 15 nM in steps of 3.16-fold dilutions in CAFTY buffer (130 mM sodium chloride, 5 mM potassium chloride, 20 mM HEPES, 1 mM magnesium chloride, 5 mM sodium bicarbonate, pH 7.4) containing 2 mM Ca^2+ and 0.01% BSA.
(§3) The compounds were thereby serially prediluted in 100% DMSO and thereafter 50 fold into the CAFTY compound dilution buffer (described above).

Test [2] deals with T1, TNKS2 (Homo sapiens, UniProt Q9H2K2).
T1 construct: purchased BPS Bioscience, San Diego, USA 80572 (TNKS2 Histone Ribosylation Assay Kit)
T1 sequence (Q9H2K2 1-1166): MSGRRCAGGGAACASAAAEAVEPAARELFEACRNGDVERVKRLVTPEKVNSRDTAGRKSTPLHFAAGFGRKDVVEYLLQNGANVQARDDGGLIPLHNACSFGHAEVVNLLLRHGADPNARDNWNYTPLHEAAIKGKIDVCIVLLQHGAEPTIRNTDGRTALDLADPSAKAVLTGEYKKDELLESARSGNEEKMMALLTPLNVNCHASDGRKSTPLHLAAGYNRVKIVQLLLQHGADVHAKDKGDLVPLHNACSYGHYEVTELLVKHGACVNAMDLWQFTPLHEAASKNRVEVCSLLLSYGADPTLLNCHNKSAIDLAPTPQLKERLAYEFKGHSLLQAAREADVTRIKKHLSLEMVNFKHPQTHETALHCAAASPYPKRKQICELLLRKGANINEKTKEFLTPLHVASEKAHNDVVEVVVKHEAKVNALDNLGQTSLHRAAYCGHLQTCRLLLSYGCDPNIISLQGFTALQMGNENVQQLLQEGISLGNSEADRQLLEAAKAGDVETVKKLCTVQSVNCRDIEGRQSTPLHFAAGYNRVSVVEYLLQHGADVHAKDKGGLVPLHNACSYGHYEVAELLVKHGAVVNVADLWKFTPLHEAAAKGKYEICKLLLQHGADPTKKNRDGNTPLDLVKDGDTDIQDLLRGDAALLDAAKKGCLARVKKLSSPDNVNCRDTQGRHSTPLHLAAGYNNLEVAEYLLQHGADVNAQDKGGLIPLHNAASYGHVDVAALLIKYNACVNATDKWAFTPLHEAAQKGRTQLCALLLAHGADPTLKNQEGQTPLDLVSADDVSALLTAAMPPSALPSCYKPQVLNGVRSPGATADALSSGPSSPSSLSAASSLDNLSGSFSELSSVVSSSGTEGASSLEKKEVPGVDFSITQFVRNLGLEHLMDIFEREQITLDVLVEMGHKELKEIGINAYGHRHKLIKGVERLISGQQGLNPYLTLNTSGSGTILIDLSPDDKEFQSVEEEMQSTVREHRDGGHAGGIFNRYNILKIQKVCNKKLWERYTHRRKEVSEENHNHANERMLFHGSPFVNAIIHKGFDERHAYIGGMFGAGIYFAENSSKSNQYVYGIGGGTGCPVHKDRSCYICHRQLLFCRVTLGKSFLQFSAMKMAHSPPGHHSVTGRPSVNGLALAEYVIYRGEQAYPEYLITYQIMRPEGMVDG
Put plainly: TNKS2 Assay B (auto-parsylation, [3H]-NAD+ SPA). Type of test: biochemical. Particulars: 6 nM TNKS2, auto-parsylation, over night at room temperature. How it is done:
The potency of selected compounds according to the invention was assessed applying a modified in vitro inhibition assay. Here, the TNKS2 catalyzed NAD^+-dependent ribosylation of the enzyme itself (auto-parsylation) was detected using [^3H]-NAD^+ as substrate and applying the scintillation proximity assay (SPA) method to detect tritium-labeled, parsylated TNKS2. The intensity of the readout signal is proportional to the incorporated [^3H]-NAD^+. Inhibition of TNKS2 leads to a decreased incorporation of [^3H]-NAD^+ and consequently to a lower readout signal intensity. The concentration of a test compound which inhibits the enzyme activity by 50% (corresponds to half of the normed readout signal intensity) is reported as IC50.
Protocol Auto-Parsylation Assay
The assay was conducted in a 96 well MTP format with the identical TNKS2 enzyme sample and NAD^+ sample as in the histone ribosylation assay with the following modifications: TNKS2 enzyme sample was diluted with a modified assay buffer (50 mM MES pH 7.0, 1 mM DTT, 0.01% Triton X-100) to a final concentration of 6 nM TNKS2 and 10×NAD^+ solution was diluted with the modified assay buffer (s. above) to a final 0.445×NAD^+ solution doped with 100 Bq/μl [^3H]-NAD^+[Catalog #NET443H050UC, Perkin Elmer, Waltham, Mass., USA]. Substrate solution (10 μl) was incubated with different test compound concentrations (2.5 μl in 10% DMSO in modified assay buffer) or control (2.5 μl 10% DMSO in modified assay buffer only) and enzyme (10 μl) over night at room temperature. Incorporated tritium was measured after addition of 50 ul SPA beads (1 mg/ml) [Catalog #RPNQ0095 20 mg/ml, Perkin Elmer, Waltham, Mass., USA; diluted 1:10 with Dulbecco's phosphate buffered saline, PBS Catalog #D8537, Sigma-Aldrich, Steinheim, Germany] and detection of the photon emission with a beta count plate reader [Wallac MicroBeta®, Perkin Elmer, Waltham, Mass., USA].

Test [3] relates to wildtype Wnt signaling cascade. Briefly: HEK293 TOP assay (Super TopFlash luciferase reporter, Wnt-3a stimulated). Conditions: Homo sapiens, HEK293, 16 h, HEK293 TOP reporter cells, Wnt3a at EC50, 16 hours. Type of test: cell-based.
Text: 7.1 Measurement of the Inhibitory Activity of Selected Compounds on the Wildtype Wnt Signaling Cascade: HEK293 TOP/FOP Assay
In order to discover and characterize small molecules which inhibit the wildtype Wnt pathway, a cellular reporter assay was employed. The corresponding assay cell was generated by transfection of the mammalian cell line HEK293 (ATCC, #CRL-1573) with the Super TopFlash vector (Morin, Science 275, 1997, 1787-1790; Molenaar et al., Cell 86 (3), 1996, 391-399). The HEK293 cell line is cultivated at 37° C. and 5% CO2 in DMEM (Life Technologies, #41965-039), supplemented with 2 mM glutamine, 20 mM HEPES, 1.4 mM pyruvate, 0.15% Na-bicarbonate and 10% foetal bovine serum (GIBCO, #10270). Stable transfectants were generated by selection with 300 μg/ml Hygromycin.
as §1, §2, §3
Background: Reporter assays use an easily measured gene product as a stand-in for the process of interest.

By IC50 is commonly meant the concentration that gives 50% inhibition. A higher IC50 goes with a need for much substance. On to `O=C(N[C@H]1CC[C@@]2(CCN(c3ccc(F)cc3Cl)C2=O)CC1)c1[nH]cnc1C(=O)N1CC2(COC2)C1` [Example 194, N-[(trans)-2-(2-chloro-4-fluorophenyl)-1-oxo-2-azaspiro[4.5]dec-8-yl]-4-(2-oxa-6-azaspiro[3.3]hept-6-ylcarbonyl)-1H-imidazole-5-carboxamide], for which the values for the half-inhibitory concentration (IC50) in test [1], in test [2] and in test [3] were at least 50000 nM, 4.8 nM and 1.5 nM, respectively.

`Cc1cc(C2CC2)n2ncc(C(=O)N[C@H]3CC[C@H](C(=O)Nc4ccc(F)cc4Cl)CC3)c2n1` [Example 204, N-{trans-4-[(2-chloro-4-fluorophenyl)carbamoyl]cyclohexyl}-7-cyclopropyl-5-methylpyrazolo[1,5-a]pyrimidine-3-carboxamide]: the 50% inhibitory concentration (IC50) was at least 50000 nM in test [1], 160 nM in test [2] and 48 nM in test [3].

On to `Cc1cc(C)n2ncc(C(=O)N[C@H]3CC[C@]4(CCN(c5ccc(F)cc5Cl)C4=O)CC3)c2n1` [Example 207, N-[(cis)-2-(2-chloro-4-fluorophenyl)-1-oxo-2-azaspiro[4.5]dec-8-yl]-5,7-dimethylpyrazolo[1,5-a]pyrimidine-3-carboxamide], for which the concentration for half-maximal inhibition (IC50) in test [1] was at least 50000 nM; in test [2], over 10000 nM; in test [3] it was 3500 nM.

Regarding `COCc1cc(C)nc2c(C(=O)N[C@H]3CC[C@@]4(CCN(c5ccc(F)cc5Cl)C4=O)CC3)cnn12` [Example 219, N-[(trans)-2-(2-chloro-4-fluorophenyl)-1-oxo-2-azaspiro[4.5]dec-8-yl]-7-(methoxymethyl)-5-methylpyrazolo[1,5-a]pyrimidine-3-carboxamide], the 50% inhibitory concentration (IC50) in test [1] is at least 500 nM; in test [2], 7.5 nM; in test [3], 5.6 nM.

In the case of `COCc1cc(C)n2ncc(C(=O)N[C@H]3CC[C@@]4(CCN(c5ccc(F)cc5Cl)C4=O)CC3)c2n1` [Example 220, N-[(trans)-2-(2-chloro-4-fluorophenyl)-1-oxo-2-azaspiro[4.5]dec-8-yl]-5-(methoxymethyl)-7-methylpyrazolo[1,5-a]pyrimidine-3-carboxamide], the figures for the IC50 in test [1], in test [2] and in test [3] were 38000 nM, 10 nM and 2.6 nM, respectively.

`O=C(N[C@H]1CC[C@@]2(CCN(c3ccc(F)cc3Cl)C2=O)CC1)c1cnc2ccccn12` [Example 223, N-[(trans)-2-(2-chloro-4-fluorophenyl)-1-oxo-2-azaspiro[4.5]dec-8-yl]imidazo[1,2-a]pyridine-3-carboxamide]: the half-maximal inhibitory concentration (IC50) in test [1] is at least 50000 nM; in test [2], 1200 nM; in test [3], 270 nM.

Consider `Cc1cc(C)n2nc(C)c(C(=O)N[C@H]3CC[C@@]4(CCN(c5ccc(F)cc5Cl)C4=O)CC3)c2n1` [Example 227, N-[(trans)-2-(2-chloro-4-fluorophenyl)-1-oxo-2-azaspiro[4.5]dec-8-yl]-2,5,7-trimethylpyrazolo[1,5-a]pyrimidine-3-carboxamide], for which the values for the 50% inhibitory concentration (IC50) in test [1], in test [2] and in test [3] were at least 50000 nM, 150 nM and 88 nM, respectively.

In the case of `O=C(N[C@H]1CC[C@@]2(CCN(c3ccc(F)cc3Cl)C2=O)CC1)c1n[nH]c2cccnc12` [Example 228, N-[(trans)-2-(2-chloro-4-fluorophenyl)-1-oxo-2-azaspiro[4.5]dec-8-yl]-1H-pyrazolo[4,3-b]pyridine-3-carboxamide], the figures for the half-maximal inhibitory concentration (IC50) in test [1], in test [2] and in test [3] were at least 500 nM, 420 nM and 60 nM, respectively.

Regarding `O=C(N[C@H]1CC[C@@]2(CCN(c3ccc(F)cc3Cl)C2=O)CC1)c1cnn2ccccc12` [Example 230, N-[(trans)-2-(2-chloro-4-fluorophenyl)-1-oxo-2-azaspiro[4.5]dec-8-yl]pyrazolo[1,5-a]pyridine-3-carboxamide], the results for the IC50 in test [1], in test [2] and in test [3] were at least 500 nM, 280 nM and 30 nM, respectively.

As for `O=C(N[C@H]1CC[C@@]2(CCN(c3ccc(F)cc3Cl)C2=O)CC1)c1cnn2ccc(N3CCOCC3)nc12` [Example 231, N-[(trans)-2-(2-chloro-4-fluorophenyl)-1-oxo-2-azaspiro[4.5]dec-8-yl]-5-(morpholin-4-yl)pyrazolo[1,5-a]pyrimidine-3-carboxamide], the values for the IC50 in test [1], in test [2] and in test [3] were at least 500 nM, 3.8 nM and 8 nM, respectively.

Take `O=C(N[C@H]1CC[C@@]2(CCN(c3ccc(F)cc3Cl)C2=O)CC1)c1cnn2ccc(O)nc12` [Example 234, N-[(trans)-2-(2-chloro-4-fluorophenyl)-1-oxo-2-azaspiro[4.5]dec-8-yl]-5-hydroxypyrazolo[1,5-a]pyrimidine-3-carboxamide]: the IC50 in test [1] is at least 50000 nM; in test [2] it was 210 nM; in test [3], 590 nM.

As for `O=C(N[C@H]1CC[C@@]2(CCN(c3ccc(F)cc3Cl)C2=O)CC1)c1cnn2c(O)ccnc12` [Example 235, N-[(trans)-2-(2-chloro-4-fluorophenyl)-1-oxo-2-azaspiro[4.5]dec-8-yl]-7-hydroxypyrazolo[1,5-a]pyrimidine-3-carboxamide], the 50% inhibitory concentration (IC50) is at least 500 nM in test [1], 29 nM in test [2] and 230 nM in test [3].

These data come from patent US20180148418A1, “AMIDO-SUBSTITUTED CYCLOHEXANE DERIVATIVES” (Bayer Pharma Aktiengesellschaft, priority 2015, published 2018).
